Consider 1 compound from PMC7772889, “Integrating biokinetics and in vitro studies to evaluate developmental neurotoxicity induced by chlorpyrifos in human iPSC-derived neural stem cells undergoing differentiation towards neuronal and glial cells” (Reproductive Toxicology (Elmsford, N.y.), 2020).

The subject of series [1] is hiPSC-derived NSCs undergoing differentiation. The series is described as follows: Synaptogenesis by immunocytochemistry and HCI (overlapping SYP+/PSD95+ puncta). The class given is cell-based, human. Conditions: 14 days, concentrations ≤ IC20. The method, then: (§1) After 14 days of treatment with CPF at the nominal concentrations of 18.45, 21.21, 24.39, 28.05, 32.26, and 37.10 μM (37.10 μM equal to IC20), obtained considering a 1-to-1.15 dilution factor, cells were fixed with 4 % formaldehyde for 10 min and washed three times in PBS 1 × . After 15 min permeabilization with PBS 1X containing 0.1 % Triton-X-100 and 3,5 % bovine serum albumin (BSA), cells were further incubated with 3,5 % BSA and 1X PBS (blocking solution) for 15 min, to prevent nonspecific binding of antibodies, and then incubated at 4 °C overnight with primary antibodies in blocking solution. […] Neurite outgrowth and BDNF protein levels were assessed by staining the cells with an antibody specific for β-III-tubulin (mouse, 1:500, ThermoFisher), and one for BDNF (rabbit, 1:70, ThermoFisher). […] Mean fluorescence intensity and the relative percentages of immunocytochemically-defined cell types were quantified using the ArrayScan™ XTI High Content Platform (Cellomics) (ThermoFisher) and the ArrayScan algorithm 'Neuronal Profiling V4.1', as previously described. […] Other masks were applied to identify the neurites, their branch points, and the fluorescence intensity levels of SYP and PSD95 puncta, or BDNF protein. […]

The test system of series [2] is BDNF protein. The series is described as follows: BDNF protein levels by immunocytochemistry and HCI. The class given is cell-based, human. The conditions noted are these: 14 days of CPF treatment, dose-dependent, vs solvent control. Here is the method:
as §1

The nature of series [3]: Cross-contamination among wells. The class given is physicochemical. Here is the method: In the adjacent wells to those containing CPF, at the applied concentrations, a corresponding amount of DMSO (vehicle control) was added. At the end of the experiment, the content of these control wells was stored at −80 °C until HPLC analysis. The CPF content in control wells served as an indication of possible contamination across wells, due to CPF evaporation.

Series [4] concerns CYP and GST gene expression in hiPSC-derived NSCs undergoing differentiation. As to the kind of experiment: qPCR analysis of CYP and GST gene expression after CPF treatment. The class given is cell-based, human. Conditions: 21 μM CPF. Here is the method: Analysis of gene expression by qPCR was performed in hiPSC-derived NSCs undergoing differentiation upon single and repeated treatment with 21 μM CPF or solvent control (0.1 % DMSO), collecting samples after 1, 3, 6 and 24 h (as shown in Fig. 2). RNA was isolated using the RNAqueous®-Micro Kit (ThermoFisher) according to manufacturer's instructions, and 500 ng of total RNA was reverse transcribed by using the High Capacity cDNA Reverse Transcription Kit (as directed, ThermoFisher).
qPCR reactions were run in duplicate using TaqMan® Gene Expression Master Mix (ThermoFisher) and the TaqMan gene expression assays shown in Table 1 (all from ThermoFisher).
Fluorescent emission was recorded in real-time using the ABI PRISM Sequence Detection System 7900HT (ThermoFisher). PCR amplification conditions consisted of 45 cycles with primers annealing at 60 °C. Relative RNA quantities were normalized to the reference genes GAPDH and Bactin and untreated cells were used to set calibrating conditions (ΔΔCt Method). Three biological replicates were performed.
A general note: Quantitative PCR measures a nucleic acid by following its amplification.

The test system of series [5] is neuron-only cultures. The conditions noted are these: cited from earlier work.
Series [6] is described as follows: Chemical solubility and stability / recovery from medium (HPLC-UV). The class given is physicochemical. Here is the method: The solubility and stability of CPF in water, medium and DMSO (the vehicle used to prepare stock solutions), were checked in preliminary assays, mimicking the actual experimental conditions: maximum concentration used; 37 °C; controlled pH; different incubation times. Samples in amber glass vials with screw caps were stored at −80 °C until the analysis for quantifying CPF by means of HPLC-UV was carried out.
Plastic-bound fraction was injected as such.

For series [7], the system named is hiPSC-derived NSCs undergoing differentiation. The series is described as follows: Spontaneous electrical activity by multi-well MEA. The class given is cell-based, human. Here is the method: Cells were plated in complete ND medium onto polyethyleneimine (PEI)- and laminin-coated 24-well-MEA plates (24-Well Plate Glass (24W300/30G-288) V.232, 12 gold microelectrodes/well) (MultiChannel Systems) (5 × 10^5 cells/well), and on day 7 of differentiation cells were treated with CPF at 21 μM or solvent control (0.1 % DMSO) for 14 days. Electrical activity was evaluated before adding CPF (0d) or solvent control, and monitored after 3, 7, 10 and 14 days of treatment (Fig. 2). Representative electrode recordings were considered for the analysis of spike rate (number of spikes/sec), burst count (considering a burst as a train of at least 5 spikes occurring within 100 millisec), and network burst count (the number of bursts that resulted synchronized among all 12 electrodes). Electrical activity was recorded using the Multi-well MEA-System, considering a sampling rate of 20,000 Hz, a low-pass filter cutoff frequency of 3500 Hz, and a high-pass filter cutoff frequency of 100 Hz. Data represent the average of at least three biological replicates.

A short description of series [8]: Non-specific binding to the matrix (Matrigel, without cells). The class given is in vitro ADME. Conditions: no cells. The method, then:
Due to the presence of Matrigel (Reduced Growth Factors), pre-coated well plates were treated in parallel, with the same experimental conditions of the main experiment, but in the absence of cells. In order to determine if and how CPF was sequestered by proteins in Matrigel, the content of the pre-coated wells was transferred into amber glass vials with screw caps and stored at −80 °C until HPLC analysis. For all these analyses, 4 biological replicates were carried out.

Series [9] concerns hiPSC-derived NSCs undergoing differentiation. As to the kind of experiment: Neurite outgrowth by immunocytochemistry and high content imaging (β-III-tubulin). The class given is cell-based, human. The conditions noted are these: 14 days. Here is the method:
After 14 days of treatment with CPF at the nominal concentrations of 18.45, 21.21, 24.39, 28.05, 32.26, and 37.10 μM (37.10 μM equal to IC20), obtained considering a 1-to-1.15 dilution factor, cells were fixed with 4 % formaldehyde for 10 min and washed three times in PBS 1 × . After 15 min permeabilization with PBS 1X containing 0.1 % Triton-X-100 and 3,5 % bovine serum albumin (BSA), cells were further incubated with 3,5 % BSA and 1X PBS (blocking solution) for 15 min, to prevent nonspecific binding of antibodies, and then incubated at 4 °C overnight with primary antibodies in blocking solution. For synaptogenesis analysis, cells were stained with microtubule-associated protein-2 (MAP2, chicken, 1:3000, Abcam), synaptophysin (pre-synaptic marker) (SYP, rabbit, 1:300, Abcam), and post-synaptic density protein 95 (PSD95, mouse, 1:300, Abcam) specific antibodies. Neurite outgrowth and BDNF protein levels were assessed by staining the cells with an antibody specific for β-III-tubulin (mouse, 1:500, ThermoFisher), and one for BDNF (rabbit, 1:70, ThermoFisher). Cells were also stained for glial fibrillary acidic protein (GFAP, chicken, 1:500, Abcam). The following day, cells were washed three times with PBS 1X and incubated for 1 h at room temperature in the dark with DyLight-conjugated secondary antibodies (1:500, Abcam) and nuclei counterstained with 1 μg/mL DAPI (ThermoFisher). Mean fluorescence intensity and the relative percentages of immunocytochemically-defined cell types were quantified using the ArrayScan™ XTI High Content Platform (Cellomics) (ThermoFisher) and the ArrayScan algorithm 'Neuronal Profiling V4.1', as previously described. This algorithm applies a specific nucleus mask around the DAPI stained nucleus, distinguishing between live and pyknotic/dead cells, a cell body mask around the cell type antibody/antigen staining (i.e., MAP2, β-III-tubulin, or GFAP). Other masks were applied to identify the neurites, their branch points, and the fluorescence intensity levels of SYP and PSD95 puncta, or BDNF protein. […]

The mark [10] stands for this setting: 21 μM (IC5), significant after 7-day treatment.

Take `CCOP(=S)(OCC)Oc1nc(Cl)c(Cl)cc1Cl` [CPF, Chlorpyrifos]: the “number of synapses (co-localization of SYP+/PSD95+ puncta)” value in [1] is listed as “remarkable dose-dependent decrease”. In addition, the “increase of BDNF protein levels” value in series [2] is at most 55%. Moreover, the Cross-contamination among wells entry in series [3] (first day of treatment) is “Not detectable”. In series [3] (last day of treatment), the Cross-contamination among wells entry is reported as “Not detectable”. In series [4] (first day of treatment), the CYP-2C9 gene expression result is “tendency towards upregulation” and the GST gene expression result is listed as “did not change”. Besides, the CYP-1A1 gene expression entry in series [4] (first day of treatment, after 3 h, 6 h and 24 h) is “Up-regulation”. The GST-A4 gene expression result in series [4] (first day, after 6 h treatment) is “modest decrease”. In addition, in series [4] (repeated treatment), the CYP gene expression result is listed as “did not significantly change” and the “GST gene expression (all analysed GST genes)” value is recorded as “significant downregulation”. The CYP-2C19 gene expression result in series [4] (repeated treatment, after 1 h) is recorded as “transient upregulation”. In addition, the “concentration from which inhibition of neurite length, neurite number and branch points was observed” value in [5] is 10 µM. Besides, the “Solubility and stability in aqueous medium solutions and DMSO” value in series [6] (maximum concentration, 37 °C, controlled pH, different incubation times) is “soluble and chemically stable”. This compound yielded a Recovery from medium in [6] (serum-free medium) of 108.2 ± 18.6%. In series [7] (setting [10]), the number of bursts entry was “modest decrease” and the spike rate entry was “modest decrease”. In [7] (21 μM, starting from the 10th day of treatment), the “number of synchronized network bursts” value was “decrease”. Also, the Bound-to-matrigel fraction in series [8] (first day of treatment) is listed as 1.7−4.2%. Moreover, in series [8] (last day of treatment), the Bound-to-matrigel fraction is on record as 5.8−6.5%. Further, in series [9] (concentrations ≤ IC20), the length of neurites entry is on record as “not significantly affected” and the “number of branch points/neurite (neurite complexity)” value is “lower number of branch points/neurite”. Also, the number of neurites/neuron result in [9] (concentrations ≤ IC20 (18.45-37.10 μM)) is reported as “concentration dependent decrease”.
